# According to patent US10927343B2, “Therapeutic apoptotic cell preparations, method for producing same and uses thereof” (ENLIVEX THERAPEUTICS LTD, priority 2012, dated 2021):
# Test system: NLRP3 inflammasome-induced IL-1β release from murine peritoneal macrophages (pMΦ)
# Assay: IL-1β release from primary resident peritoneal macrophages (ELISA)
# Assay type: cell-based, mice
# Conditions: LPS + 3% DSS, z-YVAD-fmk 10 μM, K+ 130 mM, bafilomycin A1 10 nM, NAC 20 mM
# Method: Primary resident peritoneal macrophages (pMΦ) of WT or Nlrp3−/− mice were generated as described elsewhere (Bauer et al. 2010). Briefly, mice were sacrificed under isoflurane anesthesia by cervical dislocation. Peritoneal lavage was then performed by exposing the parietal peritoneum and injecting intraperitoneally with a transpipette 10 ml of 2% FBS in PBS. The peritoneal lavage fluid was centrifuged and re-suspended at the desired concentration. The adherent pMΦ (F 4/80 positive cells) subset consists about 20% of the peritoneal lavage as observed by flow cytometer analysis. Cells were then plated into culture dishes overnight. Cells were washed, and adherent cells were used for cytokine assays. Where indicated, experiments were performed after four weeks of co-housing WT and NLRP3-deficient mice to neutralize the microbiota effect.
# pMΦ were seeded into 96-well plates at a density of 2×10^5 cells per well. After LPS priming for 1 h, cells were stimulated with different activators for 24 h. Cell culture supernatant was used for ELISA (Biolegend, San Diego Calif., USA), which was performed according to the manufacturer's protocol.
# In order to examine the effect of the apoptotic cell composition on inflammasome-induced IL-1β release, isolated macrophages were exposed to lipopolysaccharide (LPS) and DSS with or without earlier interaction with apoptotic cells for two hours.
# Given the need for TLR triggering through NF-κB signaling, and the fact that apoptotic cells can inhibit NF-κB, and therefore inhibit […] secretion in the absence of inflammasome inhibition, a set of experiments was initiated to elucidate whether IL-1β secretion is inhibited both at NF-κB and NLRP3 levels by apoptotic cells. Resident peritoneal macrophages (pMΦ) were either incubated with apoptotic cells, washed, and primed with LPS following stimulation with various inflammasome inducers, or were first primed with LPS, allowing accumulation of de novo […] transcription and then treated with apoptotic cells and inducers.
row,Compound,DSS-mediated IL-1β release
1,[Cl-].[K+] [KCl],inhibited
2,"CO/C1=C\C(C)=C\[C@@H](C)[C@@H](O)[C@@H](C)C/C(C)=C/C=C/[C@H](OC)[C@@H]([C@@H](C)[C@@H](O)[C@H](C)[C@@]2(O)C[C@@H](O)[C@H](C)[C@@H](C(C)C)O2)OC1=O [bafilomycin, bafilomycin A1]",inhibited
3,CC(=O)N[C@@H](CS)C(=O)O [N-acetyl-L-cysteine],significantly inhibited
4,z-YVAD-fmk,almost complete inhibition
